From EP4685153A1 (priority 2023, dated 2024)
Residues, ends and D or L forms follow the SMILES beside them. *: point of attachment. Succinyl(4-O-cholesteryl) = CC(C)CCC[C@@H](C)[C@H]1CC[C@H]2[C@@H]3CC=C4C[C@@H](OC(=O)CCC(=O)*)CC[C@]4(C)[C@H]3CC[C@]12C

Assays:
seven test cells = assay: In vitro cytotoxicity (CCK-8), average over seven test cells; format: cell-based; settings: CC50/IC50
Procedure: (§1) The in vitro cytotoxicity was detected by using a CCK-8 cell proliferation/toxicity assay kit (manufacturer: Abbkine, Cat. No.: KTC 011001). […] By using GraphPad Prism software, the inhibition rate curve was fitted and the half-maximal cytotoxic concentration (CC50) of the drug was calculated.

[1] = In vitro cytotoxicity (CCK-8), Huh-7 cells; format: cell-based; settings: human, CCK-8, 48 hours
Procedure: as §1

H7N9 = settings: 48 h
VSV = settings: 48 h
[2] = Circular dichroism of lipopeptide alone; format: physicochemical; settings: CD, 10 µM in PBS pH 7.2
[3] = test system: replicative HIV-1 strain JR-CSF
RABV = settings: 48 h
[4] = test system: T20-resistant mutant strains (HIV-1 strain NL4-3)
N44 = N44 (Human immunodeficiency virus type 1 group M subtype B, UniProt P04578); assay: Circular dichroism of lipopeptide complex with target sequence N44; settings: CD
Chain of N44 (P04578 538-581): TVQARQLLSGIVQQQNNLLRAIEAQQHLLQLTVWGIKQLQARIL

[5] = In vitro cytotoxicity (CCK-8), Hep-2 cells; format: cell-based; settings: human, CCK-8, 48 hours
Procedure: as §1

[6] = test system: protease K, trypsin, or α-chymotrypsin
[7] = Temperature stability experiment (antiviral activity after storage); settings: 300 µM aqueous solution, room temperature or 37 °C, various time periods; NL4-3 pseudovirus, TZM-bl cells
[8] = test system: representative pandemic HIV-1 strain pseudoviruses
[9] = In vitro cytotoxicity (CCK-8), TZM-bl cells; format: cell-based; settings: human, CCK-8, 48 hours
Procedure: as §1

[10] = test system: HIV-1 strain JRFL pseudovirus; settings: strain JRFL pseudovirus
[11] = In vitro cytotoxicity (CCK-8), MT-4 cells; format: cell-based; settings: human, CCK-8, 48 hours
Procedure: as §1

[12] = test system: HIV-1 strain NL4-3 pseudovirus; settings: strain NL4-3 pseudovirus
MERS-CoV = settings: 48 h
[13] = Human serum stability experiment (antiviral activity after incubation); settings: 20% human serum, 37 °C, 0 to 240 minutes; NL4-3 pseudovirus, TZM-bl cells
[14] = test system: HIV-1 strain SG3.1 living virus; settings: TZM-bl cells, versus T20
[15] = In vitro cytotoxicity (CCK-8), HEK293T cells; format: cell-based; settings: human, CCK-8, 48 hours
Procedure: as §1

[16] = In vitro cytotoxicity (CCK-8), MDCK cells; format: cell-based; settings: dog, CCK-8, 48 hours
Procedure: as §1

[17] = test system: HIV-1 envelope protein (Env); assay: Env-mediated cell-cell fusion inhibition (DSP reporter system)
[18] = In vitro cytotoxicity (CCK-8), 293T/ACE2 cells; format: cell-based; settings: human, CCK-8, 48 hours
Procedure: as §1

EBOV = settings: 48 h
MARV = settings: 48 h

For `CC[C@H](C)[C@H](NC(=O)[C@H](CCCCN)NC(=O)[C@H](CCCCN)NC(=O)[C@H](CCC(=O)O)NC(=O)[C@H](CC(C)C)NC(=O)[C@H](CCC(=O)O)NC(=O)[C@H](CCC(=O)O)NC(=O)[C@H](CC(C)C)NC(=O)[C@H](CCC(=O)O)NC(=O)[C@H](CCCCN)NC(=O)[C@H](CCC(=O)O)NC(=O)[C@H](Cc1ccc(O)cc1)NC(=O)[C@H](CCC(=O)O)NC(=O)[C@H](CCC(=O)O)NC(=O)[C@H](Cc1ccc(O)cc1)NC(=O)[C@H](CCC(=O)O)NC(C)=O)C(=O)N[C@@H](CCC(=O)O)C(=O)N[C@@H](CCC(=O)O)C(=O)N[C@@H](CC(C)C)C(=O)N[C@@H](CC(C)C)C(=O)N[C@@H](CCCCN)C(=O)N[C@@H](CCCCN)C(=O)N[C@@H](C)C(=O)N[C@@H](CCC(=O)O)C(=O)N[C@@H](CCC(=O)O)C(=O)N[C@@H](CCC(N)=O)C(=O)N[C@@H](CCC(N)=O)C(=O)N[C@@H](CCCCN)C(=O)N[C@@H](CCCCN)C(=O)N[C@@H](CC(N)=O)C(=O)N[C@@H](CCC(=O)O)C(=O)N[C@@H](C)C(=O)N[C@@H](C)C(=O)N[C@@H](C)C(=O)N[C@@H](CCCCN)C(=O)N[C@@H](CCCCNC(=O)CCC(=O)O[C@H]1CC[C@@]2(C)C(=CC[C@H]3[C@@H]4CC[C@H]([C@H](C)CCCC(C)C)[C@@]4(C)CC[C@@H]32)C1)C(N)=O` [LP-127] (Ac-EYEEYEKELEELEKKIEELLKKAEEQQKKNEAAAKK(Succinyl(4-O-cholesteryl))-NH2), the “therapeutic selective index (SI)” value (seven test cells) was “very high”, the CC50 at 48 h [1] was 31300 nM and the IC50 (H7N9) was 415 nM. For the same molecule, the IC50 (VSV) was 1510 nM, the “α-helix content, lipopeptide alone” value [2] was 57% and the “inhibitory activity higher than the T20, JR-CSF” value ([3]; TZM-bl cells, versus T20) was 539 folds. It also gave an IC50 ([3]; replicative strain JR-CSF, 48 h) of 0.0104 nM, an IC50 (RABV) of 1730 nM and an IC50 ([4]; T20-resistant mutant strains ( strain NL4-3, 48 h)) of 0.00702 nM. For the same molecule, the “inhibitory activity against 12 drug-resistant mutant strains higher than that of the LP-98” value ([4]; versus LP-98) was 379 folds, the “Tm value of the mixture with N44” value (N44; [θ]222, 20-98 °C at 2 °C/min) was 92 °C and the “α-helix content of the mixture with N44” value (N44; lipopeptide and N44 each 10 µM in PBS pH 7.2) was 68%. The CC50 at 48 h [5] was 16500 nM, the “change in antiviral activity after treatment with three proteases” value [6] was “no significant change” and the “change in antiviral activity after treatment at different temperatures” value [7] was “no significant change”. The IC50 ([8]; representative pandemic strain pseudoviruses, 48 h) was 0.00489 nM, the “inhibitory activity against 12 pseudoviruses higher than that of the T20” value ([8]; versus T20) was 4101 folds and the CC50 at 48 h [9] was 10200 nM. The IC50 [10] was 0.00563 nM, the CC50 at 48 h [11] was 15400 nM and the IC50 [12] was 0.00501 nM. The IC50 (MERS-CoV) was 383 nM, the “change in antiviral activity after treatment with human serum” value [13] was “no significant change” and the “inhibitory activity higher than that of the T20, SG3.1” value [14] was 1427 folds. It also gave a CC50 at 48 h [15] of 9070 nM, a CC50 at 48 h [16] of 12900 nM and an IC50 ([17]; read-out: average IC50 value, membrane fusion of 12 viruses, average over Env of 12 representative pandemic HIV-1 strains) of 0.00497 nM. The “inhibitory activity against membrane fusions of 12 viruses higher than that of the T20” value ([17]; versus T20) was 2256 folds, the CC50 at 48 h [18] was 14400 nM and the IC50 (EBOV) was 61.7 nM. For the same molecule, the IC50 (MARV) was 144 nM.
